In brackets after ≈: the same amount, converted by molar mass. Several values for one entry are separate records, joined by “and”; a condition that tells them apart may be missing. Equal entries are not always repeated. Where two headings read alike, the source gives them in different places.
Columns and labels:
[1] = In vitro plasma protein binding (ultrafiltration), rat plasma; assay type: in vitro ADME, rat (HanWistar); details: HanWistar, 10-10,000 ng/mL, mean±SD, read-out: mean unbound protein fraction (fu) in plasma
Method: (§1) For human binding studies, plasma was obtained from the blood of three healthy male volunteers. Plasma was defrosted from storage at -20° C. before use, and pools of human plasma were used for all studies. Plasma from mouse, rat, and monkey was supplied by Harlan Laboratories Ltd. (Netherlands), Milan […], Switzerland) and Centre de Primatologie ULP (France), respectively. Protein binding was measured using an ultrafiltration method. To asses the suitability of ultrafiltration, the recovery and free permeation of [^14C]-labelled Compound 1 in PBS buffer were investigated. […] Three 1 mL aliquots per concentration were introduced into […]® devices and spun for 1 min at 2000 g (filtrate ≤500 μL). Samples of the spiked solutions, the filtrate and retentate were quantified by LSC; volumes were determined by weighing. The free permeation of the test compound in PBS was evaluated as follows: Ratio=[Cuf/Cr] with Cuf being the concentration in the ultrafiltrate (ng/mL) and Cr the concentration in the retentate (ng/mL). […] Specifically, concentrations of Compound 1 was determined by an UPLC-MS/MS method. […] The ions monitored for Compound 1 was the parent [M+H]^+ ion at m/z 557.3.0; the product ions at m/z 453.4. […] The quantification was performed using Analyst software and Watson LIMS version 7.2.0.01. […] The lower limit of quantitation was 5.0 ng/mL for Compound 1.

[2] = system: plasma proteins; experiment: as above; assay type: in vitro ADME, rat (HanWistar); details: 10-10,000 ng/mL
Method: as §1

[3] = In vitro plasma protein binding (ultrafiltration), human plasma; assay type: in vitro ADME; details: male; human plasma; 10-10,000 ng/mL; mean±SD; read-out: mean unbound protein fraction (fu) in plasma
Method: (§2) For human binding studies, plasma was obtained from the blood of three healthy male volunteers. Plasma was defrosted from storage at -20° C. before use, and pools of human plasma were used for all studies. Plasma from mouse, rat, and monkey was supplied by Harlan Laboratories Ltd. (Netherlands), Milan […], Switzerland) and Centre de Primatologie ULP (France), respectively. Protein binding was measured using an ultrafiltration method. To asses the suitability of ultrafiltration, the recovery and free permeation of [^14C]-labelled Compound 1 in PBS buffer were investigated. […] Three 1 mL aliquots per concentration were introduced into […]® devices and spun for 1 min at 2000 g (filtrate ≤500 μL). Samples of the spiked solutions, the filtrate and retentate were quantified by LSC; volumes were determined by weighing. The free permeation of the test compound in PBS was evaluated as follows: Ratio=[Cuf/Cr] with Cuf being the concentration in the ultrafiltrate (ng/mL) and Cr the concentration in the retentate (ng/mL). […] Specifically, concentrations of Compound 1 was determined by an UPLC-MS/MS method. […] Standards and quality control samples were prepared on the day of analysis by adding a 20 μL aliquot of an appropriate standard or QC spiking solution in methanol. A 25 μL aliquot of the internal standard (at 200 ng/mL in methanol) was added to each well except blanks. […] Samples were processed using protein precipitation. A 0.5 mL aliquot of an acetonitrile/ethanol/acetic acid mixture (90:10:0.1, v:v:v) was added to each sample; samples were mixed using a vortex mixer for 10 minutes, and centrifuged 3800 rpm (approximately 2500×g) for 10 min at 10° C. A 500 μL aliquot of the supernatant transferred to a clean 96 well plate, 2 ml. An aliquot 500 μL of 80:20 (water:acetonitrile) was added to all the samples. Samples were mixed by vortexing for 0.5 min. A 6 μL sample volume was injected into the UPLC/MS/MS system for analysis. Samples were then assayed on an UPLC-MS/MS system, consisting of an Acquity UPLC with a quaternary pump, a ample manager, and sample organizer, coupled to a Sciex API4000 mass spectrometer running Analyst software version 1.4.2 (Foster City, Calif., USA). The mass spectrometer was operated in the positive ion mode, using electro spray ionization, with a source temperature of 500° C. Chromatographic separation was carried out on an Acquity BEH C18, 50×2.1, 1.7 particle (Waters, Mass.) at a flow rate of 1.0 mL/min. The column temperature was maintained at 65° C. […] The ions monitored for Compound 1 was the parent [M+H]^+ ion at m/z 557.3.0; the product ions at m/z 453.4. Data processing: Calibration curves (y=x^2+xb+c or y=ax+b), represented by the plots of the respective peak area ratios (y) of the analyte […] versus the concentrations (x) of the calibration samples, were generated using weighted (1/x^2 or 1/x) quadratic least-squares regression as the mathematical model. The quantification was performed using Analyst software and Watson LIMS version 7.2.0.01. Concentrations in QC and study samples were calculated from the resulting peak area ratios and interpolation from the regression equations of the respective calibration curves. The lower limit of quantitation was 5.0 ng/mL for Compound 1.

[4] = system: plasma proteins; experiment: as above; assay type: in vitro ADME
Method: as §2

[5] = system: E. coli ESBL+; experiment: In vitro MIC, 2010 surveillance isolates; assay type: cell-based, Escherichia coli; details: for Cumulative % Inhibition at MIC: N=795
[6] = system: E. coli FQS; experiment: In vitro MIC, 2010 surveillance isolates; assay type: cell-based, Escherichia coli; details: N=2906
[7] = system: Acinetobacter; experiment: In vitro MIC, 2010 surveillance isolates; assay type: cell-based; details: N=952
[8] = system: S. saprophyticus; experiment: In vitro MIC90 against common uncomplicated UTI pathogens; assay type: cell-based; details: Staphylococcus saprophyticus
Method: The minimum inhibitory concentrations for at least 90% of the isolates (MIC90) tested for Compound 1 against these common pathogens are 1 μg/mL for S. saprophyticus, 2 μg/mL for ESBL-negative E. coli, and 4 μg/mL for ESBL-producing E. coli.

[9] = In vitro activity at pH 6.0 in media; assay type: cell-based

CN(C)c1cc(CNCC(C)(C)C)c(O)c2c1C[C@H]1C[C@H]3[C@H](N(C)C)C(O)=C(C(N)=O)C(=O)[C@@]3(O)C(O)=C1C2=O [Compound 1, 9-[(2,2-dimethyl-propylamino)-methyl]-minocycline]
fraction unbound [1]: 0.739 ± 0.121 | Mean (SD) Bound Fraction [2]: 26.1 (12.3) % | fraction unbound [3]: 0.787 ± 0.0972 | Mean (SD) Bound Fraction ([4]; human plasma, 10-10,000 ng/mL): 21% and 21.3 (9.72) % | concentration dependency of plasma protein binding ([4]; human plasma, 10-10,000 ng/mL): not concentration dependent | mean unbound protein fraction (fu) in plasma ([4]; human plasma, 10-10,000 ng/mL, mean±SD): 78.7±9.7% | fraction unbound at 100 ng/mL ([4]; male, human, plasma, Concentration 100 ng/mL): 0.656 | fraction unbound at 1000 ng/mL ([4]; male, human, plasma, Concentration 1,000 ng/mL): 0.878 | fraction unbound at 10000 ng/mL ([4]; male, human, plasma, Concentration 10,000 ng/mL): 0.798 | fraction unbound ([4]; male, human, plasma, Mean over concentrations): 0.787 | MIC90 ([5]; Asia/Pac, N=219): 2 µg/mL (≈ 3.59 µM) | MIC90 ([5]; ESBL-producing E. coli): 4 µg/mL (≈ 7.19 µM) | MIC90 ([5]; Escherichia coli, ESBL-producing E. coli, read-out: MIC90): < 4 µg/mL | MIC90 ([5]; Europe, N=274): 4 µg/mL (≈ 7.19 µM) | MIC90 ([5]; L. Amer, N=168): 4 µg/mL (≈ 7.19 µM) | Cumulative % Inhibition at MIC ([5]; MIC 1 μg/ml): 63.0% | Cumulative % Inhibition at MIC ([5]; MIC 2 μg/ml): 87.5% | Cumulative % Inhibition at MIC ([5]; MIC 4 μg/ml): 97.7% | Cumulative % Inhibition at MIC ([5]; MIC 8 μg/ml): 99.5% | Cumulative % Inhibition at MIC ([5]; MIC 16 μg/ml): 99.9% | Cumulative % Inhibition at MIC ([5]; MIC ≤0.5 μg/ml, listed as head image P00006): 30.4% | Cumulative % Inhibition at MIC ([5]; MIC ≥32 μg/ml): 100% | MIC90 ([5]; N America, N=134): 4 µg/mL (≈ 7.19 µM) | Cumulative % Inhibition at MIC ([6]; MIC 1 μg/ml): 87.0% | Cumulative % Inhibition at MIC ([6]; MIC 2 μg/ml): 96.6% | Cumulative % Inhibition at MIC ([6]; MIC 4 μg/ml): 99.6% | Cumulative % Inhibition at MIC ([6]; MIC 8 μg/ml): 99.9% | Cumulative % Inhibition at MIC ([6]; MIC 16 μg/ml): 99.9% | Cumulative % Inhibition at MIC ([6]; MIC ≤0.5 μg/ml, listed as head image P00007): 58.5% | Cumulative % Inhibition at MIC ([6]; MIC ≥32 μg/ml): 100% | Cumulative % Inhibition at MIC ([7]; MIC 1 μg/ml): 44.1% | Cumulative % Inhibition at MIC ([7]; MIC 2 μg/ml): 73.1% | Cumulative % Inhibition at MIC ([7]; MIC 4 μg/ml): 93.5% | Cumulative % Inhibition at MIC ([7]; MIC 8 μg/ml): 98.5% | Cumulative % Inhibition at MIC ([7]; MIC 16 μg/ml): 99.5% | Cumulative % Inhibition at MIC ([7]; MIC ≤0.5 μg/ml, listed as head image P00018): 31.1% | Cumulative % Inhibition at MIC ([7]; MIC ≥32 μg/ml): 100% | MIC90 [8]: 1 µg/mL (≈ 1.8 µM) | in vitro activity at pH 6.0 in media [9]: somewhat decreased

CN(C)c1cc(NC(=O)CNC(C)(C)C)c(O)c2c1C[C@H]1C[C@H]3[C@H](N(C)C)C(O)=C(C(N)=O)C(=O)[C@@]3(O)C(O)=C1C2=O [Tigecycline]
% R (resistance) ([5]; Asia/Pac, Eucast breakpoints): 0% | MIC90 ([5]; Asia/Pac, N=219): 0.25 µg/mL (≈ 0.427 µM) | % R (resistance) ([5]; Europe, Eucast breakpoints): 0% | MIC90 ([5]; Europe, N=274): 0.5 µg/mL (≈ 0.854 µM) | % R (resistance) ([5]; L. Amer, CLSI breakpoints): 0% | MIC90 ([5]; L. Amer, N=168): 0.25 µg/mL (≈ 0.427 µM) | % R (resistance) ([5]; N America, CLSI breakpoints): 0% | MIC90 ([5]; N America, N=134): 0.25 µg/mL (≈ 0.427 µM)

Source: US10238670B2, “9-aminomethyl minocycline compounds and methods of use thereof in urinary tract infection (UTI) treatment” (Paratek Pharmaceuticals, Inc., priority 2016, dated 2019)
